Tested on: dermal sheath (DS) cells
Assay: Growth of DS cells using serum-free medium
Type: cell-based, human
Conditions: culturing in serum-free medium containing added PDGF
Description: A 12-well plate (BD) was coated with CELLStart™ (Life Technologies), and cryopreserved DS cells (from person scalp, DSC, passage number: 0) were suspended in 1 ml of serum-free medium and seeded on the plate at 4×10^4 cells per well. The serum-free media used were 1) HFDM-1(−) medium (Cell Science & Technology Institute), 2) HFDM-1(+) medium (Cell Science & Technology Institute), 3) PDGF-AA (10 ng/ml)-dissolved HFDM-1(−) medium and 4) PDGF-BB (10 ng/ml)-dissolved HFDM-1(−) medium. Culturing was conducted at 37° C. in the presence of 5% carbon dioxide gas. The cells were observed under microscopy on days 2, 5 and 10 (FIG. 1: 40×), and the number of cells per visual field was counted (FIG. 2).
A 12-well plate (BD) was coated with CELLStart™ (Life Technologies), and cryopreserved DS cells (from person scalp, DSC, passage number: 0) were suspended in 1 ml of serum-free medium and seeded on the plate at 4×10^4 cells per well. The serum-free media used were 1) StemProSFM CTS (sup+, Life Technologies), 2) PDGF-BB (10 ng/ml)-dissolved StemProSFM CTS (sup+, Life Technologies) and 3) Mosaic hMSC SF Culture Medium (sup+, BD) and 4) PDGF-BB (10 ng/ml)-dissolved Mosaic hMSC SF Culture Medium (sup+, BD). […] The cells were observed under microscopy on days 2 and 7 (FIG. 3: 40×), and the number of cells per visual field was counted (FIG. 4). […]

Substance: PDGF
- growth of DS cells (number of cells per visual field): significantly grow DS cells

Source: patent US11427807B2, “Serum-free medium containing PDGF for DS cells” (Shiseido Company, Ltd., priority 2013, dated 2022)
